Data taken from ChEMBL document CHEMBL4842346, “Improving the metabolic stability of antifungal compounds based on a scaffold hopping strategy: Design, synthesis, and structure-activity relationship studies of dihydrooxazole derivatives” (Eur J Med Chem, 2021).
In brackets after ≈: the same amount, converted by molar mass.

What was measured:
Type in all cases: functional
Candida tropicalis = assay: Antifungal activity against Candida tropicalis GIM2.183 assessed as inhibition of fungal growth by NCCLS protocol based method
Candida albicans [1] = assay: Antifungal activity against Candida albicans SC5314 assessed as inhibition of fungal growth by NCCLS protocol based method
Aspergillus fumigatus = assay: Antifungal activity against Aspergillus fumigatus CGMCC3.7795 assessed as inhibition of fungal growth by NCCLS protocol based method
Candida albicans [2] = assay: Antifungal activity against Candida albicans GIM2.194 assessed as inhibition of fungal growth by NCCLS protocol based method
Pichia kudriavzevii = assay: Antifungal activity against Candida krusei GIM2.1 assessed as inhibition of fungal growth by NCCLS protocol based method
Candida parapsilosis = assay: Antifungal activity against Candida parapsilosis GIM2.190 assessed as inhibition of fungal growth by NCCLS protocol based method; conditions: Lodderomyces parapsilosis
Candida albicans [3] = assay: Antifungal activity against Candida albicans CPCC400523 assessed as inhibition of fungal growth by NCCLS protocol based method
Cryptococcus neoformans [4] = assay: Antifungal activity against Cryptococcus neoformans CGMCC2.3161 assessed as inhibition of fungal growth by NCCLS protocol based method
Candida albicans [5] = assay: Antifungal activity against fluconazole resistant Candida albicans CaR assessed as inhibition of fungal growth by NCCLS protocol based method
Candida albicans [6] = assay: Antifungal activity against fluconazole and itraconazole resistant Candida albicans 17# assessed as inhibition of fungal growth by NCCLS protocol based method
Cryptococcus neoformans [7] = assay: Antifungal activity against Cryptococcus neoformans GIM2.209 assessed as inhibition of fungal growth by NCCLS protocol based method

Row | Structure (SMILES) | MIC (Candida tropicalis) | MIC (Candida albicans [1]) | MIC (Aspergillus fumigatus) | MIC (Candida albicans [2]) | MIC (Pichia kudriavzevii) | MIC (Candida parapsilosis) | MIC (Candida albicans [3]) | MIC (Cryptococcus neoformans [4]) | MIC (Candida albicans [5]) | MIC (Candida albicans [6]) | MIC (Cryptococcus neoformans [7])
1 | Fc1ccccc1-c1ccc(C2=NC(Cn3cncn3)(c3cccc(Cl)c3)CO2)cc1 (stereo unspecified) | > 16 µg/mL | 0.06 µg/mL (≈ 0.139 µM) | > 64 µg/mL | > 16 µg/mL | > 64 µg/mL | > 64 µg/mL |  |  |  |  | 
2 | Fc1cc(C2=NC(Cn3cncn3)(c3ccccc3)CO2)ccc1-c1ccccc1 (stereo unspecified) | 0.06 µg/mL (≈ 0.151 µM) | < 0.03 µg/mL | > 64 µg/mL | < 0.03 µg/mL | 0.5 µg/mL (≈ 1.25 µM) | 4 µg/mL (≈ 10 µM) |  |  |  |  | 
3 | O=C(c1ccc(-c2ccccc2)cc1)N1CCC[C@@H]1Cn1ccnc1 |  | > 64 µg/mL | > 64 µg/mL |  |  |  | > 64 µg/mL | > 64 µg/mL |  |  | 
4 | Clc1cccc(-c2ccc(C3=NC(Cn4cncn4)(c4ccccc4)CO3)cc2)c1 (stereo unspecified) | > 16 µg/mL | > 16 µg/mL | > 64 µg/mL | > 16 µg/mL | > 64 µg/mL | > 64 µg/mL |  |  |  |  | 
5 | Fc1ccccc1-c1ccc(C2=NC(Cn3cncn3)(c3ccc(Cl)cc3)CO2)cc1 (stereo unspecified) | 0.06 µg/mL (≈ 0.139 µM) | < 0.03 µg/mL | > 64 µg/mL | < 0.03 µg/mL | 0.25 µg/mL (≈ 0.578 µM) | 4 µg/mL (≈ 9.24 µM) |  |  | 0.25 µg/mL (≈ 0.578 µM) | > 64 µg/mL | 
6 | c1ccc(-c2ccc(C3=NC(Cn4cncn4)(c4ccccc4)CO3)cc2)cc1 (stereo unspecified) | 0.06 µg/mL (≈ 0.158 µM) | < 0.03 µg/mL | 2 µg/mL (≈ 5.26 µM) | < 0.03 µg/mL | 0.25 µg/mL (≈ 0.657 µM) | 0.25 µg/mL (≈ 0.657 µM) |  |  |  |  | 
7 | CC(C)(O)C(Cn1ccnc1)NC(=O)c1ccc(-c2ccccc2)cc1 (stereo unspecified) |  | 8 µg/mL (≈ 22.9 µM) | > 64 µg/mL |  |  |  | > 64 µg/mL | > 64 µg/mL |  |  | 
8 | Fc1cccc(-c2ccc(C3=NC(Cn4cncn4)(c4cccc(F)c4)CO3)cc2)c1 (stereo unspecified) | 0.25 µg/mL (≈ 0.6 µM) | 0.06 µg/mL (≈ 0.144 µM) | > 64 µg/mL | 0.06 µg/mL (≈ 0.144 µM) | > 64 µg/mL | > 64 µg/mL |  |  | > 64 µg/mL | > 64 µg/mL | 
9 | c1ccc(-c2ccc(C3=NC(Cn4cnnn4)(c4ccccc4)CO3)cc2)cc1 (stereo unspecified) | > 16 µg/mL | > 16 µg/mL | > 64 µg/mL | > 16 µg/mL | > 64 µg/mL | > 64 µg/mL |  |  |  |  | 
10 | C[C@H]1OC(c2ccc(-c3ccccc3)cc2)=N[C@H]1Cn1ccnc1 | 4 µg/mL (≈ 12.6 µM) | > 64 µg/mL | > 64 µg/mL | > 64 µg/mL |  |  |  |  |  |  | > 64 µg/mL
11 | CC(C)C1OC(c2ccc(-c3ccccc3)cc2)=NC1Cn1ccnc1 (stereo unspecified) | < 0.125 µg/mL | 0.5 µg/mL (≈ 1.45 µM) | > 64 µg/mL | > 64 µg/mL |  |  |  |  |  |  | > 64 µg/mL
12 | Fc1cccc(-c2ccc(C3=NC(Cn4cncn4)(c4ccccc4)CO3)cc2)c1 (stereo unspecified) | 0.06 µg/mL (≈ 0.151 µM) | < 0.03 µg/mL | > 64 µg/mL | < 0.03 µg/mL | < 0.125 µg/mL | 16 µg/mL (≈ 40.2 µM) |  |  |  |  | 
13 | Fc1cc(-c2ccccc2)ccc1C1=NC(Cn2cncn2)(c2ccccc2)CO1 (stereo unspecified) | 0.06 µg/mL (≈ 0.151 µM) | < 0.03 µg/mL | > 64 µg/mL | 0.06 µg/mL (≈ 0.151 µM) | > 64 µg/mL | 16 µg/mL (≈ 40.2 µM) |  |  |  |  | 
14 | CCC(C)n1ncn(-c2ccc(N3CCN(c4ccc(OCC5COC(Cn6cncn6)(c6ccc(Cl)cc6Cl)O5)cc4)CC3)cc2)c1=O (stereo unspecified) [ITRACONAZOLE] | < 0.125 µg/mL | < 0.03 µg/mL | < 0.125 µg/mL | < 0.125 µg/mL | < 0.125 µg/mL | < 0.125 µg/mL | < 0.125 µg/mL | < 0.125 µg/mL |  |  | < 0.125 µg/mL
15 | CC1(Cn2ccnc2)COC(c2ccc(-c3ccccc3)cc2)=N1 (stereo unspecified) | 4 µg/mL (≈ 12.6 µM) | 2 µg/mL (≈ 6.3 µM) | 0.5 µg/mL (≈ 1.58 µM) | 8 µg/mL (≈ 25.2 µM) |  |  |  |  |  |  | > 64 µg/mL
16 | FC(F)(c1ccccc1)C1(Cn2ccnc2)COC(c2ccc(-c3ccccc3)cc2)=N1 (stereo unspecified) | < 0.125 µg/mL | < 0.125 µg/mL | > 64 µg/mL | > 64 µg/mL |  |  |  |  |  |  | > 64 µg/mL
17 | Fc1ccc(-c2ccc(C3=NC(Cn4cncn4)(c4ccccc4)CO3)cc2)cc1 (stereo unspecified) | 8 µg/mL (≈ 20.1 µM) | 0.25 µg/mL (≈ 0.627 µM) | > 64 µg/mL | > 16 µg/mL | > 64 µg/mL | > 64 µg/mL |  |  |  |  | 

Row | Structure (SMILES) | MIC (Candida tropicalis) | MIC (Candida albicans [1]) | MIC (Aspergillus fumigatus) | MIC (Candida albicans [2]) | MIC (Pichia kudriavzevii) | MIC (Candida parapsilosis) | MIC (Candida albicans [3]) | MIC (Cryptococcus neoformans [4]) | MIC (Candida albicans [5]) | MIC (Candida albicans [6]) | MIC (Cryptococcus neoformans [7])
18 | c1ccc(-c2ccc(C3=NC(Cn4ccnc4)C(c4ccccc4)O3)cc2)cc1 (stereo unspecified) | > 64 µg/mL | > 64 µg/mL | > 64 µg/mL | > 64 µg/mL |  |  |  |  |  |  | > 64 µg/mL
19 | Clc1ccc(-c2ccc(C3=NC(Cn4cncn4)(c4ccccc4)CO3)cc2)cc1 (stereo unspecified) | > 16 µg/mL | > 16 µg/mL | > 64 µg/mL | > 16 µg/mL | > 64 µg/mL | > 64 µg/mL |  |  |  |  | 
20 | Fc1cc(F)cc(C2(Cn3cncn3)COC(c3ccc(-c4ccccc4F)cc3)=N2)c1 (stereo unspecified) | > 16 µg/mL | 0.06 µg/mL (≈ 0.138 µM) | > 64 µg/mL | > 16 µg/mL | > 64 µg/mL | > 64 µg/mL |  |  |  |  | 
21 | O=C(c1ccccc1)C1(Cn2ccnc2)COC(c2ccc(-c3ccccc3)cc2)=N1 (stereo unspecified) | > 64 µg/mL | 0.5 µg/mL (≈ 1.23 µM) | > 64 µg/mL | > 64 µg/mL |  |  |  |  |  |  | > 64 µg/mL
22 | FC(F)(F)c1ccc(-c2ccc(C3=NC(Cn4cncn4)(c4ccccc4)CO3)cc2)cc1 (stereo unspecified) | > 16 µg/mL | > 16 µg/mL | > 64 µg/mL | > 16 µg/mL | > 64 µg/mL | > 64 µg/mL |  |  |  |  | 
23 | O=C(c1ccc(-c2ccccc2)cc1)N1CCC[C@H]1Cn1ccnc1 |  | 16 µg/mL (≈ 48.3 µM) | 8 µg/mL (≈ 24.1 µM) |  |  |  | 32 µg/mL (≈ 96.6 µM) | > 64 µg/mL |  |  | 
24 | N#Cc1ccc(-c2ccc(C3=NC(Cn4cncn4)(c4ccccc4)CO3)cc2)cc1 (stereo unspecified) | > 16 µg/mL | > 16 µg/mL | > 64 µg/mL | > 16 µg/mL | > 64 µg/mL | > 64 µg/mL |  |  |  |  | 
25 | Clc1ccccc1-c1ccc(C2=NC(Cn3cncn3)(c3ccccc3)CO2)cc1 (stereo unspecified) | > 16 µg/mL | > 16 µg/mL | > 64 µg/mL | > 16 µg/mL | > 64 µg/mL | > 64 µg/mL |  |  |  |  | 
26 | CN(C)C(=O)C(Cn1ccnc1)NC(=O)c1ccc(-c2ccccc2)cc1 (stereo unspecified) |  | 4 µg/mL (≈ 11 µM) | > 64 µg/mL |  |  |  | > 64 µg/mL | > 64 µg/mL |  |  | 
27 | Fc1ccccc1-c1ccc(C2=NC(Cn3cncn3)(c3ccccc3)CO2)cc1 (stereo unspecified) | 0.06 µg/mL (≈ 0.151 µM) | < 0.03 µg/mL | > 64 µg/mL | < 0.03 µg/mL | 0.5 µg/mL (≈ 1.25 µM) | 16 µg/mL (≈ 40.2 µM) |  |  |  |  | 
28 | O=C(NC(Cn1ccnc1)C1COC1)c1ccc(-c2ccccc2)cc1 (stereo unspecified) |  | 8 µg/mL (≈ 23 µM) | > 64 µg/mL |  |  |  | > 64 µg/mL | > 64 µg/mL |  |  | 
29 | c1ccc(CC2(Cn3ccnc3)COC(c3ccc(-c4ccccc4)cc3)=N2)cc1 (stereo unspecified) | 0.5 µg/mL (≈ 1.27 µM) | < 0.125 µg/mL | > 64 µg/mL | 0.5 µg/mL (≈ 1.27 µM) |  |  |  |  |  |  | > 64 µg/mL
30 | FC(F)(F)Oc1ccc(-c2ccc(C3=NC(Cn4cncn4)(c4ccccc4)CO3)cc2)cc1 (stereo unspecified) | > 16 µg/mL | > 16 µg/mL | > 64 µg/mL | > 16 µg/mL | > 64 µg/mL | > 64 µg/mL |  |  |  |  | 
31 | c1ccc(-c2ccc(C3=N[C@H](Cn4ccnc4)CO3)cc2)cc1 |  | > 64 µg/mL | > 64 µg/mL |  |  |  | > 64 µg/mL | > 64 µg/mL |  |  | 
32 | Fc1cc(F)cc(-c2ccc(C3=NC(Cn4cncn4)(c4ccccc4)CO3)cc2)c1 (stereo unspecified) | > 16 µg/mL | > 16 µg/mL | > 64 µg/mL | > 16 µg/mL | > 64 µg/mL | > 64 µg/mL |  |  |  |  | 
33 | Fc1cccc(-c2ccc(C3=NC(Cn4cncn4)(c4cc(F)cc(F)c4)CO3)cc2)c1 (stereo unspecified) | > 16 µg/mL | 0.06 µg/mL (≈ 0.138 µM) | > 64 µg/mL | > 16 µg/mL | > 64 µg/mL | > 64 µg/mL |  |  |  |  | 
